Earlier results on four compounds are cited in patent US20070161683A1, “Certain chemical entities, compositions, and methods” (priority 2005, published 2007).

Each structure is given as a SMILES string.

The subject of the data set is A549 cells. Conditions: concentration that decreases the rate of cell growth by fifty percent.
For `O=c1[nH]cc(F)c(=O)[nH]1` [5-fluorouracil], the GI50 was 1000 nM.

`COc1cccc2c1C(=O)c1c(O)c3c(c(O)c1C2=O)C[C@@](O)(C(=O)CO)C[C@@H]3O[C@H]1C[C@H](N)[C@H](O)[C@H](C)O1` [doxorubicin]: the GI50 was 63 nM.

For the compound `NC(=O)NO` [hydroxyurea], the GI50 was 500000 nM.

As for `CC(=O)O[C@H]1C(=O)[C@@]2(C)[C@H]([C@H](OC(=O)c3ccccc3)[C@]3(O)C[C@H](OC(=O)[C@H](O)[C@@H](NC(=O)c4ccccc4)c4ccccc4)C(C)=C1C3(C)C)[C@]1(OC(C)=O)CO[C@@H]1C[C@@H]2O` [paclitaxel], the GI50 was 4 nM.

A word on the GI50: it is the concentration giving 50% growth inhibition.
